Laboratory results reported in patent publication US8962660B2 (Bristol-Myers Squibb Company, priority 2013, dated 2015).
Counter-ions that a name gives are not always drawn.

These molecules were tested on C57BL/6 mice (assay: Acute oral glucose tolerance test). Settings: oral glucose tolerance test in mice, dose of 30 mg/kg, AUC t=0-120 min vs vehicle.
Format: in vivo
Protocol: 1) Acute Oral Glucose Tolerance Test
C57BL/6 mice were housed individually and fed a standard rodent chow diet. At approximately 11 weeks age, after a 5 h fast, these mice were orally treated with vehicle or test compounds 60 min before a glucose challenge (2 g/kg). Blood glucose levels were determined from tail bleeds taken at −60, 0, 15, 30, 60 and 120 min after the glucose challenge. The blood glucose excursion profile from t=0-120 min was used to calculate an area under the curve (AUC) for compound treatment. This AUC for compound treatment is compared to vehicle treatment.
In an oral glucose tolerance test in mice at dose of 30 mg/kg, Examples 6, 14 and 80 reduced glucose AUC levels by 40%, 30% and 60% respectively.

| SMILES | reduced glucose AUC levels |
| --- | --- |
| O=C(O)[C@H]1C[C@@H]1CCC12CCC(c3cccc(Oc4ccccc4)c3)(CC1)OC2 (single isomer, unassigned) [Example 14] | 30% |
| Cc1ccc(Oc2cc(F)cc(C34CCC(CCOCC(=O)O)(CC3)CO4)c2)cc1F [Example 80, 2-(2-(1-(3-fluoro-5-(3-fluoro-4-methylphenoxy)phenyl)-2-oxabicyclo [2.2.2]octan-4-yl)ethoxy) acetic acid] | 60% |
| O=C(O)COCCC12CCC(c3cccc(Oc4ccccc4)c3)(CC1)OC2 [Example 6, 2-(2-(1-(3-Phenoxyphenyl)-2-oxabicyclo[2.2.2]octan-4-yl)ethoxy)acetic acid] | 40% |

Each molecule was assayed against T1, human GPR120 (Homo sapiens, UniProt Q5NUL3) (assay: GPR120 pERK AlphaScreen SureFire assay (human)). Settings: CHO cells stably transfected with short form of human GPR120.
T1 construct: expressed in transfected cells; host or cells: CHOA12 cells
T1 sequence (Q5NUL3 1-361): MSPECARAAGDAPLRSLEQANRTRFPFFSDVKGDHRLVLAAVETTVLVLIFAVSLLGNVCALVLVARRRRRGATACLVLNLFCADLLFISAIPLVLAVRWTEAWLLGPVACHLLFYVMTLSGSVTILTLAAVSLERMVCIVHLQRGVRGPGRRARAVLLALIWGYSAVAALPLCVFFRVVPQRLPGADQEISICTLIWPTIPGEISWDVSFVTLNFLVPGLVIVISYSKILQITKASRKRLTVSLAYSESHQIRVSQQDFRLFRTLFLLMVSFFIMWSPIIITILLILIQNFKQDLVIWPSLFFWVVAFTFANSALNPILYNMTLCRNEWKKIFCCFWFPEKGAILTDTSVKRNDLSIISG
Format: cell-based
Summary of the method: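 CHOA12 cells stably expressing short-form human GPR120, serum-starved 2 h, were stimulated 7 min at 37 °C with compound (33.33 μM–0.56 nM, 11-point). pERK read by AlphaScreen SureFire; activation normalized to 50 μM linolenic acid and DMSO blank, EC50 by 4-parameter fit.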

| SMILES | EC50 |
| --- | --- |
| O=C(O)[C@H]1C[C@@H]1CCC12CCC(c3cccc(Oc4ccccc4)c3)(CC1)OC2 (single isomer, unassigned) [Example 14] | 350 nM |
| O=C(O)COCCC12CCC(c3cccc(Oc4ccccc4)c3)(CC1)OC2 [Example 6, 2-(2-(1-(3-Phenoxyphenyl)-2-oxabicyclo[2.2.2]octan-4-yl)ethoxy)acetic acid] | 560 nM |
| CC(C)=COc1cccc(C23CCC(CCOCC(=O)O)(CC2)CO3)c1 [Example 20, 2-(2-(1-(3-(2-Methylprop-1-enyloxy)phenyl)-2-oxabicyclo[2.2.2]octan-4-yl)ethoxy)acetic acid] | 650 nM |
| O=C(O)COCCC12CCC(c3ccccc3Oc3ccccc3)(CC1)OC2 [Example 37, 2-(2-(1-(2-Phenoxyphenyl)-2-oxabicyclo[2.2.2]octan-4-yl)ethoxy)acetic acid] | 1140 nM |
| O=C(O)[C@@H]1C[C@H]1CCC12CCC(c3cccc(Oc4cccc(F)c4)c3)(CC1)OC2 (single isomer, unassigned) [Example 65, 2-(2-(1-(3-(3-Fluorophenoxy)phenyl)-2-oxabicyclo[2.2.2]octan-4 yl)ethyl)cyclopropane carboxylic acid] | 330 nM |
| O=C(CCCCC12CCC(c3cccc(Oc4ccccc4)c3)(CC1)OC2)NS(=O)(=O)c1ccccc1 [Example 25, 5-(1-(3-Phenoxyphenyl)-2-oxabicyclo[2.2.2]octan-4-yl)-N-(phenylsulfonyl)pentanamide] | 590 nM |
| CCNC(=O)[C@@H]1C[C@H]1CCC12CCC(c3cccc(Oc4ccccc4)c3)(CC1)OC2 (single isomer, unassigned) [Example 69, N-Ethyl-2-(2-(1-(3-phenoxyphenyl)-2-oxabicyclo[2.2.2]octan-4-yl)ethyl) cyclopropanecarboxamide] | 4230 nM |
| O=C(O)CCC12CCC(c3cccc(Oc4ccccc4)c3)(CC1)OC2 [Example 1, 3-(1-(3-Phenoxyphenyl)-2-oxabicyclo[2.2.2]octan-4-yl)propanoic acid] | 2310 nM |
| CC(C)COc1cc(F)cc(C23CCC(CCOCC(=O)O)(CC2)CO3)c1 [Example 36, 2-(2-(1-(3-Fluoro-5-isobutoxyphenyl)-2-oxabicyclo[2.2.2]octan-4-yl)ethoxy)acetic acid] | 720 nM |
| O=C(O)/C=C\CCC12CCC(c3cccc(Oc4ccccc4)c3)(CC1)OC2 [Example 35, (Z)-5-(1-(3-Phenoxyphenyl)-2-oxabicyclo[2.2.2]octan-4-yl)pent-2-enoic acid] | 660 nM |
| CC(C)COc1cccc(C23CCC(CC[C@@H]4C[C@H]4C(=O)O)(CC2)CO3)c1 (single isomer, unassigned) [Example 66, 2-(2-(1-(3-Isobutoxyphenyl)-2-oxabicyclo[2.2.2]octan-4-yl)ethyl)cyclopropanecarboxylic acid] | 2080 nM |
| O=C(NCc1ncn[nH]1)[C@@H]1C[C@H]1CCC12CCC(c3cccc(Oc4ccccc4)c3)(CC1)OC2 (single isomer, unassigned) [Example 62, N-((1H-1,2,4-Triazol-5-yl)methyl)-2-(2-(1-(3-phenoxyphenyl)-2-oxabicyclo[2.2.2]octan-4-yl)ethyl) cyclopropanecarboxamide] | 1220 nM |
| COc1ccc(Oc2cccc(C34CCC(CC[C@@H]5C[C@H]5C(=O)O)(CC3)CO4)c2)cc1 [Example 71, (1R,2R)-2-(2-(1-(3-(4-methoxy-phenoxy)phenyl)-2-oxabicyclo[2.2.2]octan-4-yl)ethyl)cyclo-propane carboxylic acid] | 1170 nM |
| O=C(O)[C@@H]1C[C@H]1CCC12CCC(c3cccc(Oc4cccc(O)c4)c3)(CC1)OC2 (single isomer, unassigned) [Example 70, 2-(2-(1-(3-(3-Hydroxyphenoxy)phenyl)-2-oxabicyclo[2.2.2]octan-4-yl)ethyl) cyclopropanecarboxylic acid] | 970 nM |
| OCC(O)CCC12CCC(c3cccc(Oc4ccccc4)c3)(CC1)OC2 (stereo not drawn) [Example 56, 4-(1-(3-Phenoxyphenyl)-2-oxabicyclo[2.2.2]octan-4-yl)butane-1,2-diol] | 610 nM |
| O=C(O)C1CC1CCC12CCC(c3cccc(OC4CCCCO4)c3)(CC1)OC2 (stereo not drawn) [Example 61, 2-(2-(1-(3-(Tetrahydro-2H-pyran-2-yloxy)phenyl)-2-oxabicyclo[2.2.2]octan-4-yl)ethyl) cyclopropanecarboxylic acid] | 5230 nM |
| OCC(O)CCCC12CCC(c3cccc(Oc4ccccc4)c3)(CC1)OC2 (racemic) [Example 58, 5-(1-(3-Phenoxyphenyl)-2-oxabicyclo[2.2.2]octan-4-yl)pentane-1,2-diol] | 290 nM |
| O=C(O)COCCC12CCC(c3cc(F)cc(Oc4ccc(F)c(F)c4)c3)(CC1)OC2 [Example 79, 2-(2-(1-(3-(3,4-difluorophenoxy)-5-fluorophenyl)-2-oxabicyclo [2.2.2]octan-4-yl)ethoxy) acetic acid] | 550 nM |
| Cc1ccc(Oc2cccc(C34CCC(CCOCC(=O)O)(CC3)CO4)c2)cc1 [Example 41, 2-(2-(1-(3-(p-tolyloxy)phenyl)-2-oxabicyclo [2.2.2]octan-4-yl)ethoxy)acetic acid] | 200 nM |
| O=C(O)COCCC12CCC(c3cccc(Oc4cccnc4)c3)(CC1)OC2 [Example 21, 2-(2-(1-(3-(Pyridin-3-yloxy)phenyl)-2-oxabicyclo[2.2.2]octan-4-yl)ethoxy)acetic acid, TFA salt] | 6860 nM |
| O=C(O)COCCC12CCC(c3cccc(Oc4cc(F)cc(F)c4)c3)(CC1)OC2 [Example 76, 2-(2-(1-(3-(3,5-difluorophenoxy)phenyl)-2-oxabicyclo[2.2.2]octan-4-yl)ethoxy)acetic acid] | 420 nM |
| O=C(O)COCCC12CCC(c3cc(F)cc(OCC(F)(F)F)c3)(CC1)OC2 [Example 54, 2-(2-(1-(3-Fluoro-5-(2,2,2-trifluoroethoxy)phenyl)-2-oxabicyclo[2.2.2]octan-4-yl)ethoxy)acetic acid] | 3470 nM |
| O=C(O)CC1CC1CC12CCC(c3cccc(Oc4ccccc4)c3)(CC1)OC2 (stereo not drawn) [Example 16, 2-(2-((1-(3-Phenoxyphenyl)-2-oxabicyclo[2.2.2]octan-4-yl)methyl)cyclopropyl)acetic acid (trans)] | 160 nM |

Further lines, results first:

| EC50 | SMILES |
| --- | --- |
| 220 nM | Cc1ccc(Oc2cc(F)cc(C34CCC(CCOCC(=O)O)(CC3)CO4)c2)cc1F [Example 80, 2-(2-(1-(3-fluoro-5-(3-fluoro-4-methylphenoxy)phenyl)-2-oxabicyclo [2.2.2]octan-4-yl)ethoxy) acetic acid] |
| 800 nM | COc1cc(Oc2ccc(F)cc2)cc(C23CCC(CCOCC(=O)O)(CC2)CO3)c1 [Example 92, 2-(2-(1-(3-(4-fluorophenoxy)-5-methoxyphenyl)-2-oxabicyclo[2.2.2]octan-4-yl)ethoxy)acetic acid] |
| 7780 nM | O=C(O)COCCC12CCC(c3cccc(Oc4cccnc4)c3)(CC1)CO2 [Example 104] |
| 490 nM | O=C(O)COCCCC12CCC(c3cccc(Oc4ccccc4)c3)(CC1)CO2 [Example 110, 2-(3-(4-(3-Phenoxyphenyl)-2-oxabicyclo[2.2.2]octan-1-yl)propoxy)acetic acid] |
| 410 nM | O=C(O)COCCC12CCC(c3ccc(F)c(Oc4ccccc4)c3)(CC1)OC2 [Example 87, 2-(2-(1-(4-fluoro-3-phenoxyphenyl)-2-oxabicyclo[2.2.2]octan-4-yl)ethoxy)acetic acid] |
| 350 nM | Cc1ccc(Oc2cc(C34CCC(CCOCC(=O)O)(CC3)CO4)ccc2F)cc1F [Example 89, 2-(2-(1-(4-fluoro-3-(3-fluoro-4-methylphenoxy)phenyl)-2-oxabicyclo [2.2.2]octan-4-yl)ethoxy) acetic acid] |
| 350 nM | O=C(O)COCCC12CCC(c3cc(F)c(F)c(Oc4ccc(F)cc4)c3)(CC1)OC2 [Example 95, 2-(2-(1-(3,4-Difluoro-5-(4-fluorophenoxy)phenyl)-2-oxabicyclo[2.2.2]octan-4-yl)ethoxy) acetic acid] |
| 520 nM | COc1cc(Oc2ccc(C)c(F)c2)cc(C23CCC(CCOCC(=O)O)(CC2)CO3)c1 [Example 93, 2-(2-(1-(3-(3-fluoro-4-methylphenoxy)-5-methoxyphenyl)-2-oxabicyclo[2.2.2]octan-4-yl)ethoxy)acetic acid] |
| 3440 nM | O=C(O)COCCC12CCC(c3cccc(Oc4ccc(F)cc4)c3)(CC1)CO2 [Example 105] |
| 950 nM | COc1cc(Oc2ccccc2)cc(C23CCC(CCOCC(=O)O)(CC2)CO3)c1 [Example 90, 2-(2-(1-(3-methoxy-5-phenoxyphenyl)-2-oxabicyclo[2.2.2]octan-4-yl)ethoxy)acetic acid] |
